Counter-ions that a name gives are not always drawn.
Test: colour stability in pharmaceutical formulations (undesired colors due to degradation products)
Format: physicochemical
Conditions: particularly suppositories
Description: Said colors, due to degradation products, are evidenced also when using the hydrochloride, whereas they are completely removed when a salt according to the invention is used.

undesired colors occuring in the long run: evidenced
Compound: OCC(O)CN1CCN(c2ccccc2)CC1 (stereo not shown) [hydrochloride]
